Reference: ChEMBL document CHEMBL1126264, “Secondary metabolites by chemical screening. 17. Nigericinol derivatives: synthesis, biological activities, and modeling studies” (1992)
Converted amounts (≈) assume the structure as drawn.

Columns and labels:
[1] = test system: Staphylococcus aureus; test: Compound was tested for antimicrobial activity against Staphylococcus aureus 503
[2] = test system: Staphylococcus aureus; test: Compound was tested for antimicrobial activity against Staphylococcus aureus 285
[3] = test system: Human alphaherpesvirus 2; test: Compound was tested for antimicrobial activity against HSV type 2; format: functional
[4] = test system: Human alphaherpesvirus 1; test: Compound was tested for antimicrobial activity against HSV type 1; format: functional
[5] = test system: Streptococcus pyogenes; test: Compound was tested for antimicrobial activity against […] pyogenes 308 A; format: functional
[6] = test system: Streptococcus pyogenes; test: Compound was tested for antimicrobial activity against Streptococcus pyogenes 77A; format: functional, […] pyogenes
[7] = (§1) Maximum tolerated dose (MTD) of the compound; format: functional; conditions: herpes simplex virus
[8] = test system: Staphylococcus aureus; test: Compound was tested for antimicrobial activity against Staphylococcus aureus SG511
[9] = test system: herpes simplex virus; test: as §1; format: functional

CO[C@@H]1C[C@@H](C[C@H]2CC[C@H](C)[C@H]([C@@H](C)C(=O)O)O2)OC2(O[C@](C)([C@H]3CC[C@@](C)([C@@H]4O[C@@H]([C@H]5O[C@@](O)(CO)[C@H](C)C[C@@H]5C)C[C@@H]4C)O3)C[C@H]2C)[C@@H]1C (stereo partly specified)
MIC [1]: 0.098 µg/mL (≈ 0.135 µM) | MIC [2]: 0.098 µg/mL (≈ 0.135 µM) | MIC [3]: 0.05 µg/mL (≈ 0.069 µM) | MIC [4]: < 0.02 µg/mL | MIC [5]: 0.025 µg/mL (≈ 0.0345 µM) | MIC [6]: 0.013 µg/mL (≈ 0.0179 µM) | MTD [7]: 1.4 µg/mL | MIC [8]: 0.098 µg/mL (≈ 0.135 µM)

CO[C@@H]1C[C@@H](C[C@H]2CC[C@H](C)[C@H]([C@@H](C)C(=O)O)O2)OC2(O[C@](C)([C@H]3CC[C@@](C)([C@@H]4O[C@@H]([C@H]5O[C@](COC(=O)C(C)C)(OC)[C@H](C)C[C@@H]5C)C[C@@H]4C)O3)C[C@H]2C)[C@@H]1C (stereo partly specified)
MIC [1]: 25 µg/mL (≈ 30.9 µM) | MIC [2]: 100 µg/mL (≈ 124 µM) | MIC [3]: > 400 µg/mL | MIC [4]: > 400 µg/mL | MIC [5]: 25 µg/mL (≈ 30.9 µM) | MIC [6]: > 100 µg/mL | MTD [7]: > 400 µg/mL | MIC [8]: > 100 µg/mL

CO[C@@H]1C[C@@H](C[C@H]2CC[C@H](C)[C@H]([C@@H](C)C(=O)O)O2)OC2(O[C@](C)([C@H]3CC[C@@](C)([C@@H]4O[C@@H]([C@H]5OC(=O)[C@H](C)C[C@@H]5C)C[C@@H]4C)O3)C[C@H]2C)[C@@H]1C (stereo partly specified)
MIC [1]: 50 µg/mL (≈ 72.2 µM) | MIC [2]: 50 µg/mL (≈ 72.2 µM) | MIC [3]: 13.3 µg/mL (≈ 19.2 µM) | MIC [4]: 4.44 µg/mL (≈ 6.41 µM) | MIC [5]: 25 µg/mL (≈ 36.1 µM) | MIC [6]: 25 µg/mL (≈ 36.1 µM) | MTD [7]: 40 µg/mL | MIC [8]: 50 µg/mL (≈ 72.2 µM)

CO[C@@H]1C[C@@H](C[C@H]2CC[C@H](C)[C@H]([C@@H](C)C(=O)OCOCC[Si](C)(C)C)O2)OC2(O[C@](C)([C@H]3CC[C@@](C)([C@@H]4O[C@@H]([C@H]5O[C@](COCOCC[Si](C)(C)C)(OCOCC[Si](C)(C)C)[C@H](C)C[C@@H]5C)C[C@@H]4C)O3)C[C@H]2C)[C@@H]1C (stereo partly specified)
MIC [1]: > 100 µg/mL | MIC [2]: > 100 µg/mL | MIC [3]: 13.3 µg/mL (≈ 11.9 µM) | MIC [4]: 4.44 µg/mL (≈ 3.98 µM) | MIC [5]: > 100 µg/mL | MIC [6]: > 100 µg/mL | MTD [9]: > 40 µg/mL | MIC [8]: > 100 µg/mL

CO[C@@H]1C[C@@H](C[C@H]2CC[C@H](C)[C@H]([C@@H](C)CO)O2)OC2(O[C@](C)([C@H]3CC[C@@](C)([C@@H]4O[C@@H]([C@H]5O[C@](CO)(OC)[C@H](C)C[C@@H]5C)C[C@@H]4C)O3)C[C@H]2C)[C@@H]1C (stereo partly specified)
MIC [1]: > 100 µg/mL | MIC [2]: > 100 µg/mL | MIC [3]: 0.5 µg/mL (≈ 0.69 µM) | MIC [4]: 4.94 µg/mL (≈ 6.81 µM) | MIC [5]: > 100 µg/mL | MIC [6]: > 100 µg/mL | MTD [7]: 14.5 µg/mL | MIC [8]: > 100 µg/mL

CO[C@@H]1C[C@@H](C[C@H]2CC[C@H](C)[C@H]([C@@H](C)COC(=O)C(C)C)O2)OC2(O[C@](C)([C@H]3CC[C@@](C)([C@@H]4O[C@@H]([C@H]5O[C@@](O)(CO)[C@H](C)C[C@@H]5C)C[C@@H]4C)O3)C[C@H]2C)[C@@H]1C (stereo partly specified)
MIC [1]: > 100 µg/mL | MIC [2]: > 100 µg/mL | MIC [3]: > 400 µg/mL | MIC [4]: > 400 µg/mL | MIC [5]: > 100 µg/mL | MIC [6]: > 100 µg/mL | MTD [7]: > 400 µg/mL | MIC [8]: > 100 µg/mL

CO[C@@H]1C[C@@H](C[C@H]2CC[C@H](C)[C@H]([C@@H](C)C(=O)O)O2)OC2(O[C@](C)([C@H]3CC[C@@](C)([C@@H]4O[C@@H]([C@H]5O[C@](CO)(OC)[C@H](C)C[C@@H]5C)C[C@@H]4C)O3)C[C@H]2C)[C@@H]1C (stereo partly specified)
MIC [1]: 1.56 µg/mL (≈ 2.11 µM) | MIC [2]: 1.56 µg/mL (≈ 2.11 µM) | MIC [3]: 0.5 µg/mL (≈ 0.677 µM) | MIC [4]: 0.02 µg/mL (≈ 0.0271 µM) | MIC [5]: 0.39 µg/mL (≈ 0.528 µM) | MIC [6]: 0.39 µg/mL (≈ 0.528 µM) | MTD [7]: 4.4 µg/mL | MIC [8]: 1.56 µg/mL (≈ 2.11 µM)

CO[C@@H]1C[C@@H](C[C@H]2CC[C@H](C)[C@H]([C@@H](C)CO)O2)OC2(O[C@](C)([C@H]3CC[C@@](C)([C@@H]4O[C@@H]([C@H]5O[C@@](O)(COC(=O)C(C)C)[C@H](C)C[C@@H]5C)C[C@@H]4C)O3)C[C@H]2C)[C@@H]1C (stereo partly specified)
MIC [1]: 3.13 µg/mL (≈ 4.01 µM) | MIC [2]: 6.25 µg/mL (≈ 8 µM) | MIC [3]: 0.49 µg/mL (≈ 0.627 µM) | MIC [4]: 0.49 µg/mL (≈ 0.627 µM) | MIC [5]: 3.13 µg/mL (≈ 4.01 µM) | MIC [6]: 12.5 µg/mL (≈ 16 µM) | MIC [8]: 12.5 µg/mL (≈ 16 µM)

CO[C@@H]1C[C@@H](C[C@H]2CC[C@H](C)[C@H]([C@@H](C)CCl)O2)OC2(O[C@](C)([C@H]3CC[C@@](C)([C@@H]4O[C@@H]([C@H]5O[C@@](O)(CCl)[C@H](C)C[C@@H]5C)C[C@@H]4C)O3)C[C@H]2C)[C@@H]1C (stereo partly specified)
MIC [1]: 0.098 µg/mL (≈ 0.131 µM) | MIC [2]: 0.39 µg/mL (≈ 0.521 µM) | MIC [3]: < 0.02 µg/mL | MIC [4]: 0.02 µg/mL (≈ 0.0267 µM) | MIC [5]: 0.098 µg/mL (≈ 0.131 µM) | MIC [6]: 0.78 µg/mL (≈ 1.04 µM) | MTD [9]: 14.8 µg/mL | MIC [8]: 0.39 µg/mL (≈ 0.521 µM)

CO[C@@H]1C[C@@H](C[C@H]2CC[C@H](C)[C@H]([C@@H](C)CO)O2)OC2(O[C@](C)([C@H]3CC[C@@](C)([C@@H]4O[C@@H]([C@@H](O)[C@@H](C)C[C@@H](C)CO)C[C@@H]4C)O3)C[C@H]2C)[C@@H]1C (stereo partly specified)
MIC [1]: 1.56 µg/mL (≈ 2.28 µM) | MIC [2]: 3.13 µg/mL (≈ 4.58 µM) | MIC [3]: 133 µg/mL (≈ 195 µM) | MIC [4]: 40 µg/mL (≈ 58.6 µM) | MIC [5]: 1.56 µg/mL (≈ 2.28 µM) | MIC [6]: 50 µg/mL (≈ 73.2 µM) | MTD [7]: 40 µg/mL | MIC [8]: 6.25 µg/mL (≈ 9.15 µM)

CO[C@@H]1C[C@@H](C[C@H]2CC[C@H](C)[C@H]([C@@H](C)CO)O2)OC2(O[C@](C)([C@H]3CC[C@@](C)([C@@H]4O[C@@H]([C@H]5O[C@](COC(=O)C(C)C)(OC)[C@H](C)C[C@@H]5C)C[C@@H]4C)O3)C[C@H]2C)[C@@H]1C (stereo partly specified)
MIC [1]: > 100 µg/mL | MIC [2]: > 100 µg/mL | MIC [3]: > 400 µg/mL | MIC [4]: > 400 µg/mL | MIC [5]: > 100 µg/mL | MIC [6]: > 100 µg/mL | MTD [7]: > 400 µg/mL | MIC [8]: > 100 µg/mL

CO[C@@H]1C[C@@H](C[C@H]2CC[C@H](C)[C@H]([C@@H](C)CO)O2)OC2(O[C@](C)([C@H]3CC[C@@](C)([C@@H]4O[C@@H]([C@H]5O[C@](COCOCC[Si](C)(C)C)(OCOCC[Si](C)(C)C)[C@H](C)C[C@@H]5C)C[C@@H]4C)O3)C[C@H]2C)[C@@H]1C (stereo partly specified)
MIC [1]: > 100 µg/mL | MIC [2]: > 100 µg/mL | MIC [3]: > 400 µg/mL | MIC [4]: > 400 µg/mL | MIC [5]: 50 µg/mL (≈ 51.5 µM) | MIC [6]: 50 µg/mL (≈ 51.5 µM) | MTD [9]: > 400 µg/mL | MIC [8]: > 100 µg/mL

CO[C@@H]1C[C@@H](C[C@H]2CC[C@H](C)[C@H]([C@@H](C)C(=O)O)O2)OC2(O[C@](C)([C@H]3CC[C@@](C)([C@@H]4O[C@@H]([C@H]5O[C@@](O)(COC(=O)C(C)C)[C@H](C)C[C@@H]5C)C[C@@H]4C)O3)C[C@H]2C)[C@@H]1C (stereo partly specified)
MIC [1]: 0.19 µg/mL (≈ 0.239 µM) | MIC [2]: 0.39 µg/mL (≈ 0.491 µM) | MIC [3]: < 0.02 µg/mL | MIC [4]: < 0.02 µg/mL | MIC [5]: 0.049 µg/mL (≈ 0.0616 µM) | MIC [6]: 0.049 µg/mL (≈ 0.0616 µM) | MTD [7]: 1.4 µg/mL | MIC [8]: 0.39 µg/mL (≈ 0.491 µM)

CO[C@@H]1C[C@@H](C[C@H]2CC[C@H](C)[C@H]([C@@H](C)CO)O2)OC2(O[C@](C)([C@H]3CC[C@@](C)([C@@H]4O[C@@H]([C@H]5O[C@@](O)(CO)[C@H](C)C[C@@H]5C)C[C@@H]4C)O3)C[C@H]2C)[C@@H]1C (stereo partly specified)
MIC [1]: 3.13 µg/mL (≈ 4.4 µM) | MIC [2]: 6.25 µg/mL (≈ 8.79 µM) | MIC [3]: < 0.18 µg/mL | MIC [4]: < 0.18 µg/mL | MIC [5]: 1.56 µg/mL (≈ 2.19 µM) | MIC [6]: 1.56 µg/mL (≈ 2.19 µM) | MTD [7]: 14.8 µg/mL | MIC [8]: > 100 µg/mL
